Measured values from ChEMBL document CHEMBL1201862, “PubChem BioAssay data set” (2004).
Calls of active or inactive are those of the source.

Key:
[1] = molecular target: T1, Replicative DNA helicase DnaB (Mycobacterium tuberculosis, UniProt P9WMR3); assay: DnaB intein splicing inhibitors, dose response, biochemical, cell-free fluorescence (AID 449749); assay type: functional
T1 sequence (P9WMR3 whole entry): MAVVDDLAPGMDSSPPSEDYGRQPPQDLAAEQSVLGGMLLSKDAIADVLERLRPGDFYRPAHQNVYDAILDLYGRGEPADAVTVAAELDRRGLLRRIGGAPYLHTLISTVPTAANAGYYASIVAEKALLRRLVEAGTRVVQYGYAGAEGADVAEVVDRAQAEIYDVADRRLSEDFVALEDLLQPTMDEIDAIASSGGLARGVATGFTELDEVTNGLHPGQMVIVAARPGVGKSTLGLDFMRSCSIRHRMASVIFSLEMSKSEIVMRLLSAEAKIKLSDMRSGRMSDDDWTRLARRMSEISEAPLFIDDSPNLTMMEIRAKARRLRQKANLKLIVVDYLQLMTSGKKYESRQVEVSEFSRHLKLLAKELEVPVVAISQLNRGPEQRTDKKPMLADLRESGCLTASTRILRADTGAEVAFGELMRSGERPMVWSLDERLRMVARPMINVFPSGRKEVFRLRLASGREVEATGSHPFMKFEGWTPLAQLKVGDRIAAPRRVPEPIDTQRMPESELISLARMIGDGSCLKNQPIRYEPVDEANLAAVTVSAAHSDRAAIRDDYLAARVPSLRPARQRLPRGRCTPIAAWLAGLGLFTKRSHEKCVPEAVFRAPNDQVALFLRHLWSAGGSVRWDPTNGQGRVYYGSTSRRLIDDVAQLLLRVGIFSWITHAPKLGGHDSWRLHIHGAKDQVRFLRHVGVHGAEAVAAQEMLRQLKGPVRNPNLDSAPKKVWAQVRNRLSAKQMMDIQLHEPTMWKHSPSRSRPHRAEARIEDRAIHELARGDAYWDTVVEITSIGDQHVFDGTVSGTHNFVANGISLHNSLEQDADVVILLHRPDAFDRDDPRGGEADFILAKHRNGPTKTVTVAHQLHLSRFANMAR

Protein RecA = molecular target: T2, Protein RecA (Mycobacterium tuberculosis, UniProt P9WHJ3); assay: Fluorescence Cell-Free Homogeneous Dose Retest to Identify Inhibitors of RecA-Intein Splicing Activity. [Related pubchem assays (depositor defined):AID2097, AID2223, AID489010, AID492950]; assay type: functional
T2 sequence (P9WHJ3 whole entry): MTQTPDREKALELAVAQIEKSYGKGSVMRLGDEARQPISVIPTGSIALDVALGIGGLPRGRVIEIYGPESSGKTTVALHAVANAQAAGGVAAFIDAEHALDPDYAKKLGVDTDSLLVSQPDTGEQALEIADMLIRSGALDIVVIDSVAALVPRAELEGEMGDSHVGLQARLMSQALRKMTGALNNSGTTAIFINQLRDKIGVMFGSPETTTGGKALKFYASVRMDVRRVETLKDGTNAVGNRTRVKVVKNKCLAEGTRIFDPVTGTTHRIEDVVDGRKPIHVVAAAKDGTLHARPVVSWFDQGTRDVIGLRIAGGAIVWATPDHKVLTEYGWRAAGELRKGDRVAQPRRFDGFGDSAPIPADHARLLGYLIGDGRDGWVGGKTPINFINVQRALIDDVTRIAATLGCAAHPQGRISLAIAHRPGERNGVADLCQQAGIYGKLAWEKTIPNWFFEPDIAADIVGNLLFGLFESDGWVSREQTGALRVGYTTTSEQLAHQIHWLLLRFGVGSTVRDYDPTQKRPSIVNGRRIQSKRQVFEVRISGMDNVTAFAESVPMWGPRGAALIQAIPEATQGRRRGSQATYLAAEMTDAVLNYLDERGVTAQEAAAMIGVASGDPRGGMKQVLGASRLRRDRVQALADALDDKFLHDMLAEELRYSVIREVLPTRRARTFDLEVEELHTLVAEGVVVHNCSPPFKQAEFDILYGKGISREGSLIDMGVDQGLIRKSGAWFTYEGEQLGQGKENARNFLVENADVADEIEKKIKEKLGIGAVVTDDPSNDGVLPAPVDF

X-box-binding protein 1 = X-box-binding protein 1 (Homo sapiens, UniProt P17861); assay type: functional, Cricetulus griseus;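 further: confirmatory dose-response counter-screen serving a CHOP assay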
[2] = molecular target: T3, DNA repair protein RAD52 homolog (Homo sapiens, UniProt P43351); assay type: functional, biochemical
T3 sequence (P43351 whole entry): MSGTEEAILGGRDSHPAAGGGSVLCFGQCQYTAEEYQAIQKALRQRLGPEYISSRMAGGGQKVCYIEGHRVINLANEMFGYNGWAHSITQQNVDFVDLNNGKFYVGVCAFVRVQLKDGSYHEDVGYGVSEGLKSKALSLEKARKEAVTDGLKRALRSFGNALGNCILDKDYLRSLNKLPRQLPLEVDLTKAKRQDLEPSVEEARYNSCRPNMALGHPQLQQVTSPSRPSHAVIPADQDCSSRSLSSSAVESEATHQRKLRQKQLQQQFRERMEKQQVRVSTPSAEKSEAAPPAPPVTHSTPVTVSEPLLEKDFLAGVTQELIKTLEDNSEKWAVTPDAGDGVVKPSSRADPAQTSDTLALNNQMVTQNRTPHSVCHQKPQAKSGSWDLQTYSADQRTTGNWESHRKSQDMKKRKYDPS

[3] = molecular target: T4, Small ubiquitin-related modifier 1 (Homo sapiens, UniProt P63165); assay: SUMO1 protein interaction blockers, potency – biochemical, fluorescence polarization, uHTS hits, dose response (AID 624382); assay type: functional; conditions: read-out: IC50_Mean
[4] = molecular target: Induced myeloid leukemia cell differentiation protein Mcl-1 (Homo sapiens, UniProt Q07820); assay type: functional
[5] = molecular target: T4, Small ubiquitin-related modifier 1; assay: SUMO1 protein-protein binding blockers, potency – biochemical, FRET, dose response (AID 624383); assay type: functional; conditions: read-out: IC50_Mean
[6] = molecular target: Heat shock protein HSP 90-alpha (Homo sapiens, UniProt P07900); assay type: functional, organism-based
[7] = viability of HCT116 lacking mutant beta-catenin – cell-based, human colon tumor, dose response (AID 1045); assay type: functional;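 further: HCT116 colon tumor cells with beta catenin knocked out; cells exposed to compound for 60 hours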
[8] = viability of PTEN-deleted HCT116 cells – cell-based, HCT116 PTEN knockout, dose response (AID 1047); assay type: functional;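 further: HCT116 colon tumor cells with PTEN knocked out; cells exposed to compound for 60 hours before readout; potency for loss of cell viability measured by luminescence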
[9] = molecular target: Eukaryotic translation initiation factor 4E (Mus musculus, UniProt P63073); assay: blockers of eIF4G binding by eIF4E – biochemical, TR-FRET, dose response (AID 855); assay type: functional;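 further: potency for disrupting eIF4E binding to eIF4GI seen as loss of FRET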
[10] = molecular target: Intestinal-type alkaline phosphatase (Homo sapiens, UniProt P09923); assay: Dose Response confirmation of uHTS hits from a small molecule inhibitors of human intestinal alkaline phosphatase via a luminescent assay. [Related pubchem assays (depositor defined):AID2544, AID2574]; assay type: functional
[11] = molecular target: T5, Mannose-6-phosphate isomerase (Homo sapiens, UniProt P34949); assay: MPI enzyme activity inhibition – biochemical, fluorescence intensity, coupled assay, primary screen (AID 1209)
T5 sequence (P34949 whole entry): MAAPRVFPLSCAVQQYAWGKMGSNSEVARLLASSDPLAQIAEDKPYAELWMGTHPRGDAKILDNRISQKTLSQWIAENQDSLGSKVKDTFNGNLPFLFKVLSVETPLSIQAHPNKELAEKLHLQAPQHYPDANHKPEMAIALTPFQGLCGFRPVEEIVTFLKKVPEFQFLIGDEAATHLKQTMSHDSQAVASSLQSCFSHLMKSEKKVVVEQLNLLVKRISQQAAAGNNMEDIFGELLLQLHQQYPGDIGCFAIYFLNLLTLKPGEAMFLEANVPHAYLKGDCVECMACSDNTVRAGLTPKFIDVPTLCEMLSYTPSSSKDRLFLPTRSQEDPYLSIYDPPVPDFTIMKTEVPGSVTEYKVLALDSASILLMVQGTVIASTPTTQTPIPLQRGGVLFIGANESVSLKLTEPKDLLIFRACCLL

Streptococcus = assay: GAS UMAA2166 growth inhibition – luminescence, BacTiterGlo, counter-screen for streptokinase expression inhibitor project, dose response (AID 1915); assay type: functional, organism-based;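 further: potency for reduction of bacterial viability or growth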
[12] = molecular target: DNA dC->dU-editing enzyme APOBEC-3A (Homo sapiens, UniProt P31941); assay: A3A deaminase inhibition for selectivity – biochemical, dose response (AID 504722); assay type: functional
Phosphomannomutase 2 = molecular target: T6, Phosphomannomutase 2 (Homo sapiens, UniProt O15305); assay: Counter screen SAR assay for PMM2 inhibitors via a fluorescence intensity assay. [Related pubchem assays (depositor defined):AID1545, AID1574]
T6 sequence (O15305 whole entry): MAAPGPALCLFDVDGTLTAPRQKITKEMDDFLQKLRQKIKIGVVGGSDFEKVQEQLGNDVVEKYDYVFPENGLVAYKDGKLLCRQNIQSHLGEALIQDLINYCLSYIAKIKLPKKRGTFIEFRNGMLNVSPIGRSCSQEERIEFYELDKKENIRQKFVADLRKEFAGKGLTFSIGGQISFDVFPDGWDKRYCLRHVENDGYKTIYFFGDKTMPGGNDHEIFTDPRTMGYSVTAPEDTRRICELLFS

[13] = molecular target: T7, Polyadenylate-binding protein 1 (Homo sapiens, UniProt P11940); assay: MLLE domain peptide-binding blockers, IC50 – biochemical, fluorescence polarization, FITC-PAM2 peptide, dose response (AID 602259); assay type: functional; conditions: read-out: IC50_Mean
[14] = molecular target: DNA dC->dU-editing enzyme APOBEC-3G (Homo sapiens, UniProt Q9HC16); assay: Dose Response confirmation of small molecule APOBEC3G DNA Deaminase Inhibitors via a fluorescence-based single-stranded DNA deaminase assay. [Related pubchem assays (depositor defined):AID493012, AID493028]; assay type: functional
[15] = molecular target: T5, Mannose-6-phosphate isomerase; assay: phosphomannose isomerase inhibition – biochemical, fluorescence intensity, confirmation (AID 1535)
[16] = tested on: Streptococcus sp. 'group A'; assay: Streptococcus pyogenes SK(-)GAS viability under kanamycin – luminescence, BacTiterGlo, confirmation, counter-screen for streptokinase expression inhibitor project, dose response (AID 1900); assay type: functional, organism-based
Large T antigen = Large T antigen (Simian virus 40, UniProt P03070); assay type: functional, Betapolyomavirus macacae;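 further: Confirmatory-stage PubChem screen for compounds that inhibit SV40 T antigen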
[17] = molecular target: Glucose-6-phosphate 1-dehydrogenase (Homo sapiens, UniProt P11413); assay: inhibition of Homo sapiens G6PD, dose series – biochemical, fluorescence, selectivity assay for P. falciparum G6PD inhibitor project, dose response (AID 504792); assay type: functional
Streptokinase A = molecular target: T8, Streptokinase A (Streptococcus pyogenes serotype M1, UniProt P10520); assay: viability-normalized secreted streptokinase activity reduction – plasminogen activation absorbance, OD405, dose response (AID 1914); assay type: functional, Streptococcus pyogenes M1 GAS;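 further: secreted streptokinase activity via plasminogen activation per viability signal from cell pellet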
T8 sequence (P10520 whole entry): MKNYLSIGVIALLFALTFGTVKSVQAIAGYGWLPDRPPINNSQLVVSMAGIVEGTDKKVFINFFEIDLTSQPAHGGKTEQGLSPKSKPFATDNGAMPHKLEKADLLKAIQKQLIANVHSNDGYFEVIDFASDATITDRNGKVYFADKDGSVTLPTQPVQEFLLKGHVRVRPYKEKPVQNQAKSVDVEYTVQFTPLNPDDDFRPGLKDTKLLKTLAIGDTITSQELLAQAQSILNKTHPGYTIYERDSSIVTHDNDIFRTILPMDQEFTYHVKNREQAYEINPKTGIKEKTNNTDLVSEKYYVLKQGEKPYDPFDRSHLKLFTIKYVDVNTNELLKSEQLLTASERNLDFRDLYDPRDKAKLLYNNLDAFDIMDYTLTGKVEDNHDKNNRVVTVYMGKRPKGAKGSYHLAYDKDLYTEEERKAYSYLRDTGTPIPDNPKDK

[18] = molecular target: T5, Mannose-6-phosphate isomerase; assay: MPI inhibition at elevated mannose 6-phosphate – biochemical, fluorescence intensity, high mannose 6-phosphate, primary screen (AID 1220)
[19] = molecular target: T7, Polyadenylate-binding protein 1; assay: MLLE binding blockers, Cy5 peptide tracer – biochemical, fluorescence polarization, Cy5-PAM2 peptide, secondary, miRNA deadenylation inhibitor project, dose response (AID 602260); assay type: functional; conditions: read-out: IC50_Mean
[20] = molecular target: Phosphoethanolamine/phosphocholine phosphatase (Homo sapiens, UniProt Q8TCT1); assay: SAR assay for compounds that inhibit PHOSPHO1. [Related pubchem assays (depositor defined):AID1545, AID1565, AID1574]
Chain of Phosphoethanolamine/phosphocholine phosphatase (Q8TCT1 whole entry): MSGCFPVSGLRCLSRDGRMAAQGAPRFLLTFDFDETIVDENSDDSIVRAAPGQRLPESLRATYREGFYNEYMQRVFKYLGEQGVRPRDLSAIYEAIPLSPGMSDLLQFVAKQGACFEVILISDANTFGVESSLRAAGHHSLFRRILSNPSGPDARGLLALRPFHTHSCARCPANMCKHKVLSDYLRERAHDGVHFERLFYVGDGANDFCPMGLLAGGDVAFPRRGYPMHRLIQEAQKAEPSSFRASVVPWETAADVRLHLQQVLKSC

T4 sequence (P63165 whole entry): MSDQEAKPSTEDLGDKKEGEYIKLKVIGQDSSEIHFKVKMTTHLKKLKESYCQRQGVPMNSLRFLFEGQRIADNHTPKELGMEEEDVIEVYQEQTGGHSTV
Chain of Eukaryotic translation initiation factor 4E (P63073 whole entry): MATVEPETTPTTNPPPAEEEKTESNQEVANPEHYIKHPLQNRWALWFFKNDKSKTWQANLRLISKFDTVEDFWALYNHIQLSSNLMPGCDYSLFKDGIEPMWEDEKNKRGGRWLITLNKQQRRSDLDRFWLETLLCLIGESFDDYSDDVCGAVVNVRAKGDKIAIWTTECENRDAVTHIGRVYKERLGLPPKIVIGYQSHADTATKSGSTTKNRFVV
Chain of Intestinal-type alkaline phosphatase (P09923 whole entry): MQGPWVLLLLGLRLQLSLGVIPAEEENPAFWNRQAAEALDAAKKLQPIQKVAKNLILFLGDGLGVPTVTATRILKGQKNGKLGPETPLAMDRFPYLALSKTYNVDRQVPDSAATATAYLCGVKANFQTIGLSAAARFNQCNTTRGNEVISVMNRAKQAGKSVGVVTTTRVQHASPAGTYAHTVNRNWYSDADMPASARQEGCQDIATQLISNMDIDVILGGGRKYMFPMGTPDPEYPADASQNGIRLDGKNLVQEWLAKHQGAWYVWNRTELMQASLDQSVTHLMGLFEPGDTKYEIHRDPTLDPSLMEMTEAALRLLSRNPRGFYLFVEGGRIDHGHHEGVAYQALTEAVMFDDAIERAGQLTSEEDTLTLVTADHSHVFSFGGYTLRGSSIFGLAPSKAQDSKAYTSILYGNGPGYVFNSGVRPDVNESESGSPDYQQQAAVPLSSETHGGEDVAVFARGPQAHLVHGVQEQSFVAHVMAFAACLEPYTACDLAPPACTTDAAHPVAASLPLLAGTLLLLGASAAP
T7 sequence (P11940 whole entry, the tested form may be a part): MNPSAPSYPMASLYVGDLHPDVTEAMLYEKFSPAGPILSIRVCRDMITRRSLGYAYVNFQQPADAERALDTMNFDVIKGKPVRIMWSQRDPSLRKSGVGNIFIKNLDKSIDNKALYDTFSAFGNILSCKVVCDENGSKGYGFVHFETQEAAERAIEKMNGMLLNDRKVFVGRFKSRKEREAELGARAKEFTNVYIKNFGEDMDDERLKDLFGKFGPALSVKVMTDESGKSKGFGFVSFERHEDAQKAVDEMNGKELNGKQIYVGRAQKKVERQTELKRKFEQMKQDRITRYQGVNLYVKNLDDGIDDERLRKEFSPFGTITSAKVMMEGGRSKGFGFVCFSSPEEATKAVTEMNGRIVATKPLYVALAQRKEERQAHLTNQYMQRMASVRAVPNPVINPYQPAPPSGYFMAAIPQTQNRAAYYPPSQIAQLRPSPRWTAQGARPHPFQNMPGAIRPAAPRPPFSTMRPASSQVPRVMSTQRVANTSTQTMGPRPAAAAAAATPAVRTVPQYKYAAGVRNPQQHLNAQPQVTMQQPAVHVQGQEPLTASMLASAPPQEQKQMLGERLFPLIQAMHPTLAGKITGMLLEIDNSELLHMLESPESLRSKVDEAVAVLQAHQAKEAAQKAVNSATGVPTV
Chain of Large T antigen (P03070 whole entry): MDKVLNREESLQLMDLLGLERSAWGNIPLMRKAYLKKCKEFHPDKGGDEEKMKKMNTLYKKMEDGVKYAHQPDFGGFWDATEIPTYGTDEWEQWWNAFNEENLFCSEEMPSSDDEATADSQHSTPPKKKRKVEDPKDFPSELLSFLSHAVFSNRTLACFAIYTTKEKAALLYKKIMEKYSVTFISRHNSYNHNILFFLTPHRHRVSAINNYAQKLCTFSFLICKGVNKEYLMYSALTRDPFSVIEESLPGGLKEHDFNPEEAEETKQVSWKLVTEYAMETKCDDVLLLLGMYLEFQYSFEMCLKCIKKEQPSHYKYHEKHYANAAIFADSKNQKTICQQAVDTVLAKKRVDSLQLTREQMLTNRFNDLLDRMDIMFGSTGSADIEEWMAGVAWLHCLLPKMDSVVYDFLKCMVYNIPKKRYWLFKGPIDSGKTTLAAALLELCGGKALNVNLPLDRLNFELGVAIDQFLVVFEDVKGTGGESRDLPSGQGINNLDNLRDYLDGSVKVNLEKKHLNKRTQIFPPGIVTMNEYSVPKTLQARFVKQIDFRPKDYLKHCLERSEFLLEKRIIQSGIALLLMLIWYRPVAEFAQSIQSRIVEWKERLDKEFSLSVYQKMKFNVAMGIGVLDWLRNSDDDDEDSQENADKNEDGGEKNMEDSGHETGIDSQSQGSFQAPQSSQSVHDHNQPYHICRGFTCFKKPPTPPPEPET
Chain of Glucose-6-phosphate 1-dehydrogenase (P11413 whole entry): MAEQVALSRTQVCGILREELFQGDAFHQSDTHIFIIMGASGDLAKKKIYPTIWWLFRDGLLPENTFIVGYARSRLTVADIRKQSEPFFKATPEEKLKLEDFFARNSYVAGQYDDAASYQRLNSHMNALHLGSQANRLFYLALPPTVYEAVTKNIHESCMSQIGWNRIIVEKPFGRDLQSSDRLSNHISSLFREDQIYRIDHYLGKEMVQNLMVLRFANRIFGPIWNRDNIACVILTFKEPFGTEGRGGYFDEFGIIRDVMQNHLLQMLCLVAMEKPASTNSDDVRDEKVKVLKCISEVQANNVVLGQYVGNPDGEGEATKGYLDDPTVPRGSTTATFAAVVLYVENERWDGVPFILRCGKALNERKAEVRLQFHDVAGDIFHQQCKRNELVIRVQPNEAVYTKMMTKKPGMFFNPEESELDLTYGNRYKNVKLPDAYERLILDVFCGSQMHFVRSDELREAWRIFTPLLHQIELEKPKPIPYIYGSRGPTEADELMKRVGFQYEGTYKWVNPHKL
Chain of DNA dC->dU-editing enzyme APOBEC-3G (Q9HC16 whole entry): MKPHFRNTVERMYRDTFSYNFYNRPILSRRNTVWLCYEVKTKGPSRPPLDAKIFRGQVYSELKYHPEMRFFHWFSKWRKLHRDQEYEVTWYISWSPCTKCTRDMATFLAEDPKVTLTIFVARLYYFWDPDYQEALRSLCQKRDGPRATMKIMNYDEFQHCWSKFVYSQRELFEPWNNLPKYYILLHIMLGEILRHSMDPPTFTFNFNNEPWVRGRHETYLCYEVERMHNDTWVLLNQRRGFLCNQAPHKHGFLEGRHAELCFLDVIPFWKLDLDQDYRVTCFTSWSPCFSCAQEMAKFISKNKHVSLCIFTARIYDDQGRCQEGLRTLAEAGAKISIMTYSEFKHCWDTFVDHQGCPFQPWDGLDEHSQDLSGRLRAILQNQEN
Chain of DNA dC->dU-editing enzyme APOBEC-3A (P31941 whole entry): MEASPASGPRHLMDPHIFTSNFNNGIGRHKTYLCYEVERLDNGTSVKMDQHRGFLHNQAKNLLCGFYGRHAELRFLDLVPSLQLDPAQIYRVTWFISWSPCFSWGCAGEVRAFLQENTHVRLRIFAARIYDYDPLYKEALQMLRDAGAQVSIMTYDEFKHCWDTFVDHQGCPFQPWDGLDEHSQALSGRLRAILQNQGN
Chain of Induced myeloid leukemia cell differentiation protein Mcl-1 (Q07820 whole entry): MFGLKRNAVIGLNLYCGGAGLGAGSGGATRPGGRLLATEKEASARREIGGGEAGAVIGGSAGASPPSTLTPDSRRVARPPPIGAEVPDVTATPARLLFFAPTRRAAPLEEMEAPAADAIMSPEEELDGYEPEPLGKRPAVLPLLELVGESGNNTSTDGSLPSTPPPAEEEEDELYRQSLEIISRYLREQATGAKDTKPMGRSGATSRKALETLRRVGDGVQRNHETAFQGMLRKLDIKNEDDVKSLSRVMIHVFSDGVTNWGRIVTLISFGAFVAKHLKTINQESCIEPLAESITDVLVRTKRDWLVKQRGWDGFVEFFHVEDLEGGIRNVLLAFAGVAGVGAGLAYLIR
Chain of X-box-binding protein 1 (P17861 whole entry): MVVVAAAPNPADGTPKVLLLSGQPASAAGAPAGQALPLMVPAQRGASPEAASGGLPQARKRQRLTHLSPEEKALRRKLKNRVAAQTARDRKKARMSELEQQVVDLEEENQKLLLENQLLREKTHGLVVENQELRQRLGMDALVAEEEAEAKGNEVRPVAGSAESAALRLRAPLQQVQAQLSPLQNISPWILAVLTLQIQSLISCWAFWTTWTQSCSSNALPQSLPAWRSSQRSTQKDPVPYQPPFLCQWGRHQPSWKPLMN

## CC1=NN(c2ccccc2)C(=O)/C1=C/c1cc2ccccc2[nH]1
[1]
  AC50: 19.2 µM (active)
Protein RecA
  EC50: 10.9 µM (active)
X-box-binding protein 1
  Absolute IC50 (XBP1): 10 µM

## CCCCCCCCCCCCCCCC[n+]1cccc2ccccc21
[2]
  AC50: 3.67 µM (active)
[3]
  IC50: > 66.6 µM (inactive)
[4]
  IC50: 4.32 µM (active)
[5]
  IC50: 8.86 µM (active)
[6]
  AC50: 2.87 µM (active)
[7]
  EC50: 0.17 µM (active)
[8]
  EC50: 0.295 µM (active)
[9]
  IC50: 5.71 µM (active)

## Cc1cc(NC(=O)c2ccc(N3C(=O)C4C5C=CC(C5)C4C3=O)cc2)no1 (configuration not stated)
[10]
  IC50: > 100 µM (inactive)

## O=C(Cn1sc2ccccc2c1=O)NC12CC3CC(CC(C3)C1)C2
[11]
  IC50: > 50 µM (not active)
Streptococcus
  EC50: 7.2 µM (active)
[12]
  IC50: > 100 µM (inactive)
Phosphomannomutase 2
  IC50: > 100 µM (inactive)
[13]
  IC50: > 66 µM (inactive)
[14]
  IC50: 6.94 µM (active)
[15]
  IC50: > 50 µM (inactive)
[7]
  EC50: 22.4 µM (active)
[8]
  EC50: 30.2 µM (active)
[16]
  EC50: 0.637 µM (active)
[9]
  IC50: > 64 µM (inactive)
Large T antigen
  IC50: 14 µM (active)
[17]
  IC50: 13.5 µM (active)
Streptokinase A
  EC50: > 150 µM (not active)
[18]
  IC50: > 50 µM (not active)
[19]
  IC50: > 66 µM (inactive)

## O=C(CSc1nc(-c2cccs2)cc(C(F)(F)F)n1)NCc1ccccc1
[10]
  IC50: > 100 µM (inactive)

## O=c1c2ccc(F)cc2sn1-c1cc(Cl)cc(Cl)c1
[20]
  IC50: > 100 µM (inactive)
Phosphomannomutase 2
  IC50: > 100 µM (inactive)
[15]
  IC50: > 50 µM (inactive)
